Experimental data published in US10870647B2, “Imidazopyridine derivative, method for preparing same, and pharmaceutical composition containing same as active ingredient for preventing or treating cancer” (DAEGU-GYEONGBUK MEDICAL INNOVATION FOUNDATION, priority 2016, dated 2020).

How the values were obtained:
Test in all cases: Kinase selectivity, scanMAX Kinase assay panel (DiscoverX), % control at 1 uM
Type in all cases: binding
[1] = target: T1, scanMAX Kinase assay panel (Homo sapiens, UniProt P35626); settings: GRK3; 1 uM; read-out: Percent Control (%)
T1 construct: purchased DiscoverX
T1 sequence (P35626 1-688): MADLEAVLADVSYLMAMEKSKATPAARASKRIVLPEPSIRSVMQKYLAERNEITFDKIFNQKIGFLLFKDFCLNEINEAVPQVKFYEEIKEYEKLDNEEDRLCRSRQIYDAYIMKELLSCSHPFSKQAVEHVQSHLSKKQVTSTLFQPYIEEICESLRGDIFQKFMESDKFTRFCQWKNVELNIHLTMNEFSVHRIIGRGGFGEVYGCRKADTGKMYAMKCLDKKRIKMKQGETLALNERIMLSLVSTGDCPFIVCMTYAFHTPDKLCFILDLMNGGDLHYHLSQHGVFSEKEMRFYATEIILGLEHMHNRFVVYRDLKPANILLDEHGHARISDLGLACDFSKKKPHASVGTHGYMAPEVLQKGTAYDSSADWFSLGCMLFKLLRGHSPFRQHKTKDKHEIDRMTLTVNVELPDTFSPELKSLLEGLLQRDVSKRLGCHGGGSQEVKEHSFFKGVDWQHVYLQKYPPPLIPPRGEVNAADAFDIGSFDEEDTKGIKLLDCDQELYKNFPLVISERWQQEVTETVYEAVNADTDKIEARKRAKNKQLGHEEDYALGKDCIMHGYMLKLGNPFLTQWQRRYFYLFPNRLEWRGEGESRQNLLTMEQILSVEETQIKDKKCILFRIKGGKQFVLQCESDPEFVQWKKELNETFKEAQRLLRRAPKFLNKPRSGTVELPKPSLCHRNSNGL
In short: (§1)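 Binding across the scanMAX kinase panel was tested at 1 uM compound. % control = (compound − positive control)/(negative control − positive control) × 100; below 35 counted as active.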

[2] = target: T2, scanMAX Kinase assay panel (Homo sapiens, UniProt P19784); settings: CSNK2A2; 1 uM; read-out: Percent Control (%)
T2 construct: purchased DiscoverX
In short: as §1

[3] = target: T3, scanMAX Kinase assay panel (Homo sapiens, UniProt P48730); settings: CSNK1D; 1 uM; read-out: Percent Control (%)
T3 construct: purchased DiscoverX
In short: as §1

[4] = target: T4, scanMAX Kinase assay panel (Homo sapiens, UniProt P57058); settings: HUNK; 1 uM; read-out: Percent Control (%)
T4 construct: purchased DiscoverX
T4 sequence (P57058 1-714): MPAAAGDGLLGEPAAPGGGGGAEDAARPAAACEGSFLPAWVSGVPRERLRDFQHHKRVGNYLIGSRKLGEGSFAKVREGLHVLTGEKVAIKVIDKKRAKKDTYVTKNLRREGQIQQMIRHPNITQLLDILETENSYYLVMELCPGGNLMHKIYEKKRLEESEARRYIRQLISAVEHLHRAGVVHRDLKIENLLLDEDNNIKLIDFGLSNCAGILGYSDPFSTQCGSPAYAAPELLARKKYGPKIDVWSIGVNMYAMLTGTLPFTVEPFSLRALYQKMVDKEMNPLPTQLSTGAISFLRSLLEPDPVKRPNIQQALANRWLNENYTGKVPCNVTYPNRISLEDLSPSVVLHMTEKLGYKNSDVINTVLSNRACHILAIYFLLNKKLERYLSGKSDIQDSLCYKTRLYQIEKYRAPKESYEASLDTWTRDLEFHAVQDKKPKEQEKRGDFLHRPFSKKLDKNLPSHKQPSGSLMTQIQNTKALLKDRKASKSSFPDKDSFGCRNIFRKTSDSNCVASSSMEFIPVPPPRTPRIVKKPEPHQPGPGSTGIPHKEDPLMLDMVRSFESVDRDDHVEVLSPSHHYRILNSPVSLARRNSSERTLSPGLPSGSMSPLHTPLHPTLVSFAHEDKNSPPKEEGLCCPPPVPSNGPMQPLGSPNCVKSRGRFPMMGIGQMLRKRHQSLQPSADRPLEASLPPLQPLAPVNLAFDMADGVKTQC
In short: as §1

[5] = target: T5, scanMAX Kinase assay panel (Homo sapiens, UniProt Q8TF76); settings: HASPIN; 1 uM; read-out: Percent Control (%)
T5 construct: purchased DiscoverX
T5 sequence (Q8TF76 1-798): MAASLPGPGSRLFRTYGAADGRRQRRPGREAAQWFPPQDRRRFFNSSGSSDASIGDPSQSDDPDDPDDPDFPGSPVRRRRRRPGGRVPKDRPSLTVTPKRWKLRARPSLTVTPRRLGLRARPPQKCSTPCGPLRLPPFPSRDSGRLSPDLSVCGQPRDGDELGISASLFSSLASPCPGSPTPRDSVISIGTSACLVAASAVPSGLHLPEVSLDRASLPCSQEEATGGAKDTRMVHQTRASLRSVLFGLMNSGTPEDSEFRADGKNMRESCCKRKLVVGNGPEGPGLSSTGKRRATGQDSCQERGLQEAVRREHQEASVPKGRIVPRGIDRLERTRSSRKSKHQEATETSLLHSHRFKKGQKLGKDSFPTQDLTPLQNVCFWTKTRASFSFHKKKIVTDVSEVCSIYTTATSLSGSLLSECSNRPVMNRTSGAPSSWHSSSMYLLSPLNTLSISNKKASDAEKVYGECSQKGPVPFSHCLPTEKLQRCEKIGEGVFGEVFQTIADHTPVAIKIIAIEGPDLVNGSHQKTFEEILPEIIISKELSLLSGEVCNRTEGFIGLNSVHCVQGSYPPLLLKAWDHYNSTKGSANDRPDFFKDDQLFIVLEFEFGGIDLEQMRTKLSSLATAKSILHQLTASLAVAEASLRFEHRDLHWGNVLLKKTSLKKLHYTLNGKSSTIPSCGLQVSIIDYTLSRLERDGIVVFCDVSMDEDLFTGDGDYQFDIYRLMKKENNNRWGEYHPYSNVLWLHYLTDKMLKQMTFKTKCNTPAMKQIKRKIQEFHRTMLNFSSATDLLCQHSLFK
In short: as §1

T3 sequence (P48730 whole entry): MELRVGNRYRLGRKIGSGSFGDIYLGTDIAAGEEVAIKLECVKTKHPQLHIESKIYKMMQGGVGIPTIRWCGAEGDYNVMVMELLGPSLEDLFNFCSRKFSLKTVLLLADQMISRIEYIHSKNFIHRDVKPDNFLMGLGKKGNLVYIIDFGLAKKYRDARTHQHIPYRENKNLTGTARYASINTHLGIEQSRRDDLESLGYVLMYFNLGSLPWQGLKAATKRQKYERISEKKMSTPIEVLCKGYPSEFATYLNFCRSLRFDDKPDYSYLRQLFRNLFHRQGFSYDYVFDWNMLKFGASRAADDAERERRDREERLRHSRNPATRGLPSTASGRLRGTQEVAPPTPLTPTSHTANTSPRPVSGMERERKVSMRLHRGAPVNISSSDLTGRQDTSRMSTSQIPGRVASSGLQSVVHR
T2 sequence (P19784 whole entry): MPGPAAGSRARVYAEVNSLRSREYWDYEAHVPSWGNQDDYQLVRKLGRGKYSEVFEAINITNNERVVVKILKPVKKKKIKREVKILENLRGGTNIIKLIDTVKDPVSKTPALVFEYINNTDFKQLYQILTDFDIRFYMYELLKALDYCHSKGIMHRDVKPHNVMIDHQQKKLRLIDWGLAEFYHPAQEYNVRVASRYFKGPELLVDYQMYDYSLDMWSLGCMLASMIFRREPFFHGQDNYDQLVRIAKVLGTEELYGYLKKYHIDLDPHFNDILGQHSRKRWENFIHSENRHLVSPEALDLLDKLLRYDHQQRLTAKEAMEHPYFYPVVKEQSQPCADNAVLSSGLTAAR

| SMILES | remaining binding at 1 µM [1] [%] | remaining binding at 1 µM [2] [%] | remaining binding at 1 µM [3] [%] | remaining binding at 1 µM [4] [%] | remaining binding at 1 µM [5] [%] |
| --- | --- | --- | --- | --- | --- |
| Cc1ccc(NC(=O)C2(C(=O)Nc3ccc(F)cc3)CC2)cc1C#Cc1cnc2c(Nc3cnn(C(C)C)c3)cccn12 [Example 78] | 97 | 100 | 92 | 93 | 85 |
| Cc1cn(-c2cc(NC(=O)c3ccc(C)c(C#Cc4cnc5c(Nc6cnn(C)c6)cccn45)c3)cc(C(F)(F)F)c2)cn1 [Example 12, 4-methyl-N-(3-(4-methyl-1H-imidazol-1-yl)-5-(trifluoromethyl)phenyl)-3-((8-((1-methyl-1H-pyrazol-4-yl)amino)imidazo[1,2-a]pyridin-3-yl)ethynyl)benzamide] | 100 | 98 | 79 | 79 | 100 |
| Cc1ccc(C(=O)Nc2ccc(CN3CCN(C)CC3)c(C(F)(F)F)c2)cc1C#Cc1cnc2c(Nc3cnn(C)c3)cccn12 [Example 1, 4-methyl-3-((8-((1-methyl-1H-pyrazol-4-yl)amino)imidazo[1,2-a]pyridin-3-yl)ethynyl)-N-(4-((4-methylpiperazin-1-yl)methyl)-3-(trifluoromethyl)phenyl)benzamide] | 82 | 56 | 91 | 74 | 80 |
